Assay [1] has as its target T1, recombinant human phosphodiesterase 10A1 enzyme (Homo sapiens, UniProt Q9Y233).
T1 construct: purchased BPS Biosciences; host or cells: Baculovirus infected Sf9 cells
Nature of the assay: PDE10 inhibition assay (PDELight). It counts as biochemical. To be noted: for IC50: 1 uM cAMP, read-out: PDE 10 Inhibition (IC50 in μM); for PDE-10 inhibition (in words): Table 2. On the procedure: In a 96-well plate, recombinant human phosphodiesterase 10A1 enzyme (10 U/well) expressed in Baculovirus infected Sf9 cells (BPS Biosciences) was combined with 1 uM cAMP substrate (Sigma). […] Using a PDELight® kit (Cambrex), the amount of AMP produced in the reaction from the hydrolysis of cAMP was quantified using PDELight AMP Detection Reagent which converts the AMP directly to ATP. The assay uses luciferase, which catalyses the formation of light from the newly formed ATP and luciferin. The luminescence was read on a Victor Light 1420 luminometer. IC50 calculations were plotted using a nonlinear regression curve fit.

Assay [2] has as its target T2, recombinant full length human JNK3 enzyme (Homo sapiens, UniProt P53779).
T2 construct: recombinant full length human JNK2 or JNK3 enzyme; purchased Upstate; host or cells: Sf21 cells
The assay can be described thus: JNK 3 inhibition assay (ATP depletion, luciferase). It counts as biochemical. To be noted: for IC50: 10 uM ATP, ATF2 substrate; for JNK-3 inhibition (in words): see Table 2. The procedure:
In a 96-well plate, recombinant full length human JNK2 or JNK3 enzyme (40 ng) expressed in Sf21 cells (Upstate) was incubated with the substrate ATF2 (3 uM) for 1 hour in the presence of 10 uM ATP. […] The ATP levels were quantified using luciferase with luminescence read on a Victor Light 1420 luminometer. IC50 calculations were plotted using a nonlinear regression curve fit.

Assay [3] addresses T3, catalytic domain of phosphodiesterase 4B enzyme cloned from human brain (Homo sapiens, UniProt Q07343).
T3 construct: the catalytic domain of phosphodiesterase 4B enzyme; purchased Scottish Biomedical
Nature of the assay: PDE4 inhibition assay (PDELight). It is filed as biochemical. To be noted: for IC50: 5 uM cAMP, read-out: PDE 4 Inhibition (IC50 in μM). The procedure:
In a 96-well plate, the catalytic domain of phosphodiesterase 4B enzyme (40 mU/well) cloned from human brain (Scottish Biomedical) was combined with 5 uM cAMP substrate (Sigma). […] Using a PDELight® kit (Cambrex), the amount of AMP produced in the reaction from the hydrolysis of cAMP was quantified using PDELight AMP Detection Reagent which converts the AMP directly to ATP. The assay uses luciferase, which catalyses the formation of light from the newly formed ATP and luciferin. […] IC50 calculations were plotted using a nonlinear regression curve fit.

In assay [4] the test system is at least one of JNK 3 or JNK 2 and at least one of PDE 10 or PDE 4. The assay can be described thus: Dual inhibition (phosphodiesterase and JNK). It counts as biochemical, human. Particulars: IC50 JNK 3 or JNK 2 less than about 5.00 μM and PDE 10 or PDE 4 less than about 20.0 or 30.0 μM. On the procedure: In a 96-well plate, recombinant full length human JNK2 or JNK3 enzyme (40 ng) expressed in Sf21 cells (Upstate) was incubated with the substrate ATF2 (3 uM) for 1 hour in the presence of 10 uM ATP. The amount of ATP depletion by the JNK enzyme is measured in the presence or absence of test compounds (0-30 uM). The ATP levels were quantified using luciferase with luminescence read on a Victor Light 1420 luminometer. IC50 calculations were plotted using a nonlinear regression curve fit.
In a 96-well plate, the catalytic domain of phosphodiesterase 4B enzyme (40 mU/well) cloned from human brain (Scottish Biomedical) was combined with 5 uM cAMP substrate (Sigma). Test compounds (0-30 uM) or vehicle (0.5% DMSO) were added to the enzyme/substrate and incubated 1 hour. Using a PDELight® kit (Cambrex), the amount of AMP produced in the reaction from the hydrolysis of cAMP was quantified using PDELight AMP Detection Reagent which converts the AMP directly to ATP. The assay uses luciferase, which catalyses the formation of light from the newly formed ATP and luciferin. The luminescence was read on a Victor Light 1420 luminometer. IC50 calculations were plotted using a nonlinear regression curve fit.
In a 96-well plate, recombinant human phosphodiesterase 10A1 enzyme (10 U/well) expressed in Baculovirus infected Sf9 cells (BPS Biosciences) was combined with 1 uM cAMP substrate (Sigma). Test compounds (0-30 uM) or vehicle (0.5% DMSO) were added to the enzyme/substrate and incubated 1 hour. Using a PDELight® kit (Cambrex), the amount of AMP produced in the reaction from the hydrolysis of cAMP was quantified using PDELight AMP Detection Reagent which converts the AMP directly to ATP. The assay uses luciferase, which catalyses the formation of light from the newly formed ATP and luciferin. The luminescence was read on a Victor Light 1420 luminometer. IC50 calculations were plotted using a nonlinear regression curve fit.

Assay [5] relates to rat chronic constriction injury (CCI) model of neuropathic pain. Nature of the assay: Rat chronic constriction injury (CCI) model of neuropathic pain. To be noted: IP, dose not given; 50% paw withdrawal threshold, von Frey. It is filed as in vivo. The procedure: To induce allodynia, male Sprague-Dawley rats underwent chronic constriction injury (CCI) to the sciatic nerve as described by Bennett and Xie, Pain 1988; 33(1):87-107. The plantar surface of the hind paws was stimulated with von Frey filaments (Stoelting) to induce a withdrawal response by blinded personnel. The bending force of fiber required to induce a 50% withdrawal response was calculated following CCI surgery (pre-dosing baseline). N=5-6 allodynic rats received a single IP or oral administration of test compounds or vehicle. Two hours post-dosing, 50% paw withdrawal threshold was determined again by blinded testers using von Frey filaments. The 50% withdrawal threshold prior to CCI surgery, pre-dosing (10 days post-surgery), and 2 hours post-dosing are plotted.
For selected compounds multi-day studies were perfumed with pre-determined schedules for dosing and withdrawal threshold assessments.

The target in assay [6] is T4, recombinant full length human JNK2 enzyme (Homo sapiens, UniProt P45984).
T4 construct: recombinant full length human JNK2 or JNK3 enzyme; purchased Upstate; host or cells: Sf21 cells
The assay can be described thus: JNK 2 inhibition assay (ATP depletion, luciferase). It counts as biochemical. The procedure:
In a 96-well plate, recombinant full length human JNK2 or JNK3 enzyme (40 ng) expressed in Sf21 cells (Upstate) was incubated with the substrate ATF2 (3 uM) for 1 hour in the presence of 10 uM ATP. […] IC50 calculations were plotted using a nonlinear regression curve fit.

Assay [7] has as its system Mouse BV-2 microglial cells. The assay can be described thus: BV-2 glial cell assay (TNF-α and MCP-1 by Luminex). It counts as cell-based. To be noted: for EC50: Mus musculus, BV-2, LPS and IFN-γ activated, 20 hours. On the procedure:
Mouse BV-2 microglial cells were seeded on 96-well plates at a concentration of 3×10^4 cells/well. Cells were activated with 100 ng/mL LPS and IFN-γ (100 ng/mL) in the presence or absence of test compounds (0-30 uM). Following incubation for 20 hours, cells were spun down and supernatant collected. The supernatant was analyzed via Luminex for the presence of TNF-α and MCP-1.

The mark [8] stands for this setting: read-out: IC50 value based upon a JNK 2 inhibition assay (range given).
Where [9] appears, read: 10 uM ATP, ATF2 substrate, read-out: JNK 2 Inhibition (IC50 in μM).

Where two headings read alike, the source gives them in different places.

T4 sequence (P45984 whole entry): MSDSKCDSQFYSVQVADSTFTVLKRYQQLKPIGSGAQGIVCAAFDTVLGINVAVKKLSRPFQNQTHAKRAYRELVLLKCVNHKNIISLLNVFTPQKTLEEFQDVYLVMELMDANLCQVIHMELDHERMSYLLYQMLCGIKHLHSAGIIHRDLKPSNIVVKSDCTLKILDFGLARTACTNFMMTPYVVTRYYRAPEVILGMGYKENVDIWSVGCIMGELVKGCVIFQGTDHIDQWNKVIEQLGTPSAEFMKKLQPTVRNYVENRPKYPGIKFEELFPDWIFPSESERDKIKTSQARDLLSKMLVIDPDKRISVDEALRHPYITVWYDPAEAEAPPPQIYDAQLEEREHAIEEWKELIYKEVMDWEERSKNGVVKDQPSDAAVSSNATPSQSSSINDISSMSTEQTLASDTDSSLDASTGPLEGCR
T2 sequence (P53779 whole entry): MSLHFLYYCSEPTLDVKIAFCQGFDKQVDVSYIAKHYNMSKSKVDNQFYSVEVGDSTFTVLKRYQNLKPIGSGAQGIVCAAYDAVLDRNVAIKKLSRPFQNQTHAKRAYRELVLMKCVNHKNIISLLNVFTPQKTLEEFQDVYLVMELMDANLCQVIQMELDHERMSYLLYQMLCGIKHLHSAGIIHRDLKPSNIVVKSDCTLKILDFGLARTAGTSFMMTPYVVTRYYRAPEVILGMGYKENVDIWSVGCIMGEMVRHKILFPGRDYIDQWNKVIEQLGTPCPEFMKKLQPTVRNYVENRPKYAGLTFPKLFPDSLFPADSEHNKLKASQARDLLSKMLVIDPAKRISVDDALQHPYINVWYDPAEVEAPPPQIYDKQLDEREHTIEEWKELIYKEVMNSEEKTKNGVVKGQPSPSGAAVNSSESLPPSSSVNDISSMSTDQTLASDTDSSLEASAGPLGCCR
T3 sequence (Q07343 330-659 limits assumed): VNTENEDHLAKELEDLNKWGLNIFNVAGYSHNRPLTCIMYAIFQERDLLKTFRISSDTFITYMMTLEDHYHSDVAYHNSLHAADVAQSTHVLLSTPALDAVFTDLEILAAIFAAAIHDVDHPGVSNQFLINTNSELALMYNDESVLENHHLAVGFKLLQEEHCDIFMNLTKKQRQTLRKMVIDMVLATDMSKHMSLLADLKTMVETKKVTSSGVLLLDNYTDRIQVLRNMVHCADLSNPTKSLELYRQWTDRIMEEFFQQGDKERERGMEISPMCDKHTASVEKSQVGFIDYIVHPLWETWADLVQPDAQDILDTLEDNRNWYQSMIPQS
T1 sequence (Q9Y233 1-779 isoform Q9Y233-1): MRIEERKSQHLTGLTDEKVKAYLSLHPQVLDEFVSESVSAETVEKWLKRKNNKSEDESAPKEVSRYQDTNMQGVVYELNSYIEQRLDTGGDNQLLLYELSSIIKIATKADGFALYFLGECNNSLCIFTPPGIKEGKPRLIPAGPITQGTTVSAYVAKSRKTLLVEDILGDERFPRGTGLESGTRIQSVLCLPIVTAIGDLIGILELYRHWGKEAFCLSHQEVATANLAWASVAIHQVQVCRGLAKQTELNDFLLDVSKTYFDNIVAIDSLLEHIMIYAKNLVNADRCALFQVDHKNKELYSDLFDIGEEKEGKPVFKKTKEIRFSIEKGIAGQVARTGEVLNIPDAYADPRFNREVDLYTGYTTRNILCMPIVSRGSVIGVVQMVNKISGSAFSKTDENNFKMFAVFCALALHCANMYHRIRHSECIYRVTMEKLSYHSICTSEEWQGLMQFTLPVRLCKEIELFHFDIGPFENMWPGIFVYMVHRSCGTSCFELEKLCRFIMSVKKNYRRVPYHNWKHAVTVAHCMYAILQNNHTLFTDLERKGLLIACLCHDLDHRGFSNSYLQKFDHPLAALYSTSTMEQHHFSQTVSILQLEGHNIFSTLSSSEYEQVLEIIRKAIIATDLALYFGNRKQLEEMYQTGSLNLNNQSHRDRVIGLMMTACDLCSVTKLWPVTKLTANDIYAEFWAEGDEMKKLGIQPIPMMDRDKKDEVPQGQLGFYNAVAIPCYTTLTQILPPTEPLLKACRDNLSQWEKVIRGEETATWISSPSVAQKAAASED

With `CC(C)c1nn2ccccc2c1-c1ccnc(NCCCO)n1` [AV1134, 3-(4-(2-isopropylpyrazolo[1,5-a]pyridin-3-yl)pyrimidin-2-ylamino)propan-1-ol], the IC50 in assay [1] was 9.3 µM; in assay [2] it was 8.2 µM; in assay [3], 6.2 µM. Also, the “PDE-10 inhibition (in words)” value in assay [1] is recorded as “particularly effective”. Further, the “PDE-4 inhibition (in words)” value in assay [3] was “particularly effective”. In addition, the “dual inhibition (phosphodiesterase and JNK)” value (shortened to “dual inhibition”) in assay [4] is given as “effective dual inhibitors”. The “IP CCI efficacy (Change in grams)” value in assay [5] was 0 grams.

For the molecule `CC(C)c1nn2ccccc2c1-c1ccnc(NC2CC2)n1` [AV1136, N-cyclopropyl-4-(2-isopropylpyrazolo[1,5-a]pyridin-3-yl)pyrimidin-2-amine], in assay [1], the IC50 came out at 16.8 µM and the “PDE-10 inhibition (in words)” value is “particularly effective”. In assay [2], the IC50 was found to be 1.5 µM and the “JNK-3 inhibition (in words)” value was “particularly effective”. Further, in assay [3], the “PDE-4 inhibition (in words)” value is on record as “particularly effective” and the IC50 amounted to 4.5 µM. Further, the “dual inhibition” value in assay [4] is reported as “effective dual inhibitors”. Besides, the “IP CCI efficacy (Change in grams)” value in assay [5] stood at 0 grams.

On to `CC(C)c1nn2ccccc2c1-c1ccnc(NC2CCC2)n1` [AV1156, N-cyclobutyl-4-(2-isopropylpyrazolo[1,5-a]pyridin-3-yl)pyrimidin-2-amine], for which the IC50 in assay [1] is 20 µM; in assay [2], 3 µM; in assay [6] (setting [8]), 0.01 to 2 µM; in assay [3], 8.6 µM. The “PDE-4 inhibition (in words)” value in assay [3] is “particularly effective”. Further, the “dual inhibition” value in assay [4] is reported as “effective dual inhibitors”. The “IP CCI efficacy (Change in grams)” value in assay [5] worked out at 0.33 grams.

Turning to `CC(C)CNc1nccc(-c2cnn3ccccc23)n1` [AV1167, N-isobutyl-4-(pyrazolo[1,5-a]pyridin-3-yl)pyrimidin-2-amine], the IC50 is 37 µM in assay [1]; 0.7 µM in assay [2]; 1.5 µM in assay [6] (setting [9]); 0.01 to 2 µM in assay [6] (setting [8]); 13 µM in assay [3]. In assay [2], the “JNK-3 inhibition (in words)” value was “particularly effective”. Also, the “dual inhibition” value in assay [4] is recorded as “effective dual inhibitors”.

Take `CCCCc1nn2ccccc2c1-c1ccnc(NC(C)C)n1` [AV1174, 4-(2-butylpyrazolo[1,5-a]pyridin-3-yl)-N-isopropylpyrimidin-2-amine]: the IC50 in assay [1] was 31 µM; in assay [2] it was 1.1 µM; in assay [6] (setting [9]) it was 1.2 µM; in assay [6] (setting [8]) it was 0.01 to 2 µM; in assay [3] it was 7.9 µM. Also, the “JNK-3 inhibition (in words)” value in assay [2] is given as “particularly effective”. The “PDE-4 inhibition (in words)” value in assay [3] is on record as “particularly effective”. The “dual inhibition” value in assay [4] is listed as “effective dual inhibitors”.

For the molecule `COCc1nn2ccccc2c1-c1ccnc(NC(C)C)n1` [AV1175, N-isopropyl-4-(2-(methoxymethyl)pyrazolo[1,5-a]pyridin-3-yl)pyrimidin-2-amine], the IC50 in assay [1] was over 100 µM; in assay [2], 1.2 µM; in assay [6] (setting [9]), 4.5 µM; in assay [3] it was 8.6 µM. Further, the “JNK-3 inhibition (in words)” value in assay [2] is listed as “particularly effective”. The “PDE-4 inhibition (in words)” value in assay [3] is given as “particularly effective”. For the same molecule, the “dual inhibition” value in assay [4] is listed as “effective dual inhibitors”.

For `CC(C)Nc1nccc(-c2c(-c3ccccc3)nn3ccccc23)n1` [AV1176, N-isopropyl-4-(2-phenylpyrazolo[1,5-a]pyridin-3-yl)pyrimidin-2-amine], the IC50 in assay [1] was over 100 µM; in assay [2], 0.1 µM; in assay [6] (setting [9]) it was 0.1 µM; in assay [6] (setting [8]) it was 0.01 to 2 µM; in assay [3] it was 3.8 µM. Moreover, the “JNK-3 inhibition (in words)” value in assay [2] is recorded as “particularly effective”. In assay [3], the “PDE-4 inhibition (in words)” value is listed as “particularly effective”. Also, the “dual inhibition” value in assay [4] is listed as “effective dual inhibitors”.

Turning to `CC(C)Cc1nn2ccccc2c1-c1ccnc(NC(C)C)n1` [AV1177, 4-(2-isobutylpyrazolo[1,5-a]pyridin-3-yl)-N-isopropylpyrimidin-2-amine], the half-maximal inhibitory concentration (IC50) is over 100 µM in assay [1], 1.8 µM in assay [2], 3 µM in assay [6] (setting [9]) and 6.4 µM in assay [3]. Also, the “JNK-3 inhibition (in words)” value in assay [2] is listed as “particularly effective”. The “PDE-4 inhibition (in words)” value in assay [3] is “particularly effective”. For the same molecule, in assay [4], the “dual inhibition” value is “effective dual inhibitors”.

On to `Cc1nn2ccccc2c1-c1ccnc(NC2CCCC2)n1` [AV1182, N-cyclopentyl-4-(2-methylpyrazolo[1,5-a]pyridin-3-yl)pyrimidin-2-amine], for which, in assay [1], the concentration for half-maximal inhibition (IC50) is over 100 µM. In addition, in assay [2], the IC50 was found to be 0.9 µM and the “JNK-3 inhibition (in words)” value is recorded as “particularly effective”. Besides, in assay [3], the “PDE-4 inhibition (in words)” value is “particularly effective” and the IC50 is 5.7 µM. For the same molecule, the “dual inhibition” value in assay [4] was “effective dual inhibitors”.

For `Clc1cccc(-c2nn3ccccc3c2-c2ccnc(NC3CCCC3)n2)c1` [AV1194, 4-(2-(3-chlorophenyl)pyrazolo[1,5-a]pyridin-3-yl)-N-cyclopentylpyrimidin-2-amine], the half-maximal inhibitory concentration (IC50) is over 100 µM in assay [1]; 0.08 µM in assay [2]; 0.1 µM in assay [6] (setting [9]); 0.01 to 2 µM in assay [6] (setting [8]); 5.2 µM in assay [3]. Further, the “JNK-3 inhibition (in words)” value in assay [2] is listed as “particularly effective”. The “PDE-4 inhibition (in words)” value in assay [3] is “particularly effective”. Also, in assay [4], the “dual inhibition” value is given as “effective dual inhibitors”. Also, the half-maximal effective concentration (EC50) in assay [7] (read-out: MCP-1 BV-2 (EC50 in μM)) was 1.2 µM; in assay [7] (read-out: TNF-a BV-2 (EC50 in μM)) it was 0.03 µM. Besides, the “inhibiting glial cell activation (TNF-α and/or MCP-1)” value in assay [7] (Table 3) is listed as “Particularly effective”.
